Results taken from PMC8313270 (Microbial Biotechnology, 2021).

Tested on: StdA-His
Assay: toxoflavin degradation assay, Lineweaver-Burk plot
Assay type: biochemical, Sphingomonas adhaesiva
Conditions: 50 mM sodium phosphate pH 8.0, 5 mM DTT, 28°C, no metal added

Cn1ncnc2c(=O)n(C)c(=O)nc1-2 [toxoflavin, 1,6‐dimethylpyrimido[5,4‐e]‐1,2,4‐triazine‐5,7(1H,6H) dione]
Km: 65 µM
